Reference: PubChem BioAssay AID652280 (Broad Institute, 2013)
Records with an inconclusive call do not appear. The source made the active and inactive calls. No rule for the calls is given here.

Assay: NIH/3T3 fibroblast cytotoxicity, dose response, cytotoxicity control, cell-based, plate reader, dry powder, set 2 (AID 652280)
Conditions: NIH/3T3 mouse fibroblast toxicity, plate reader; at 16 µM (top of the series)

Row | SMILES | activity change, negative = toxicity
1 | C[C@H]1CN([C@@H](C)CO)C(=O)c2cccc(NC(=O)c3ccncc3)c2O[C@@H]1CN(C)Cc1c(Cl)cccc1Cl | 16% (inactive)
2 | COc1cccc(CN(C)C[C@H]2Oc3c(NC(=O)c4ccncc4)cccc3C(=O)N([C@@H](C)CO)C[C@@H]2C)c1 | 6.03% (inactive)
3 | COC[C@H](C)N1C[C@H](C)[C@@H](CN(C)Cc2ccc(Cl)cc2)Oc2c(NC(=O)c3ccncc3)cccc2C1=O | 2.38% (inactive)
4 | CN(C)C(=O)c1cccc(-c2ccc([C@@H]3[C@@H](CO)N4CCCCN(C(=O)C5CCC5)C[C@H]34)cc2)c1 | 5.21% (inactive)
5 | CN(C)CC#Cc1cccc(-c2nc(C(=O)N3CCN(Cc4ccccc4)CC3)cc3c2[C@H](CCO)N(S(=O)C(C)(C)C)C3)c1 (some centres undefined) | -3.09% (inactive)
6 | CC(C)N1C[C@@H](C)[C@H](CN(C)Cc2ccc(Oc3ccccc3)cc2)Oc2c(C(=O)O)cccc2C1=O | 9.6% (inactive)
7 | Cc1ccccc1CN(C)C[C@H]1Oc2c(NC(=O)c3ccncc3)cccc2C(=O)N([C@@H](C)CO)C[C@@H]1C | -4.8% (inactive)
8 | CC(C)(C)[S@@](=O)N1Cc2cc(C(=O)NCc3ccc4c(c3)OCO4)nc(-c3cccc(-c4ccccc4)c3)c2[C@H]1CCO | 14.4% (inactive)
9 | C[C@@H]1CN([C@@H](C)CO)C(=O)c2cc(Br)cnc2O[C@H]1CN(C)Cc1ccc2c(c1)OCO2 | -12% (inactive)
10 | CC(c1ccc(Cl)cc1)N1CC2(C1)CN(C(C)C)C(=O)c1cccc(NC(=O)c3ccncc3)c1O2 (centres undefined) | 6.05% (inactive)
11 | C[C@@H]1CN([C@@H](C)CO)C(=O)c2cccc(NC(=O)c3ccncc3)c2O[C@H]1CN(C)Cc1cccc(Cl)c1 | -5.45% (inactive)
12 | CC(C)N1C(=O)c2cccc(NC(=O)c3ccncc3)c2O[C@H](CN(C)Cc2ccc(Cl)cc2)[C@H]1C | -1.14% (inactive)
13 | CN(C)C(=O)c1cccc(-c2ccc([C@@H]3[C@H]4CN(C(=O)C5CCC5)CCCCN4[C@H]3CO)cc2)c1 | 5.4% (inactive)
14 | CC(C)N1CC2(CN(Cc3ccc(F)cc3)C2)Oc2c(NC(=O)c3ccncc3)cccc2C1=O | -0.418% (inactive)
15 | C[C@H]1CN([C@@H](C)CO)C(=O)c2cccc(NC(=O)c3ccncc3)c2O[C@@H]1CN(C)Cc1cc(Cl)ccc1Cl | 3.82% (inactive)
16 | C[C@H]1CN([C@@H](C)CO)C(=O)c2cccc(NC(=O)c3ccncc3)c2O[C@@H]1CN(C)Cc1ccc(Cl)cc1 | -41.2% (inactive)
17 | C[C@H]1CN([C@@H](C)CO)C(=O)c2cccc(NC(=O)c3ccncc3)c2O[C@@H]1CN(C)Cc1ccccc1C(F)(F)F | 14.1% (inactive)
18 | COCCNC(=O)c1cc2c(c(-c3cccc(C#CCN(C)C)c3)n1)[C@@H](CCO)N(S(=O)C(C)(C)C)C2 (some centres undefined) | 5.61% (inactive)
19 | CCOC(=O)c1cc2c(c(-c3cccc(C#CCN(C)C)c3)n1)[C@H](CCO)N(S(=O)C(C)(C)C)C2 (some centres undefined) | -9.39% (inactive)
20 | C[C@H]1CN([C@@H](C)CO)C(=O)c2cccc(NC(=O)c3ccncc3)c2O[C@@H]1CN(C)Cc1ccc(Cl)cc1Cl | -13.3% (inactive)
21 | CN(C)CC#Cc1cccc(-c2nc(C(=O)NCc3ccc4c(c3)OCO4)cc3c2[C@H](CCO)N(S(=O)C(C)(C)C)C3)c1 (some centres undefined) | 6.62% (inactive)
22 | CN(C)CC#Cc1cccc(-c2nc(C(=O)N3CCN(C)CC3)cc3c2[C@H](CCO)N(S(=O)C(C)(C)C)C3)c1 (some centres undefined) | 16.4% (inactive)
23 | CCN(C)C[C@H]1Oc2c(NC(=O)c3ccncc3)cccc2C(=O)N(C(C)C)[C@@H]1C | -7.46% (inactive)
24 | CC(C)N1C[C@@H](C)[C@H](CN(C)Cc2ccc(OCCCC(F)(F)C(F)(F)C(F)(F)C(F)(F)C(F)(F)C(F)(F)C(F)(F)C(F)(F)F)cc2)Oc2c(NC(=O)c3ccncc3)cccc2C1=O | 22.1% (inactive)
